From patent publication US12077503B2, “Substituted cyclic amides and their use as herbicides” (FMC CORPORATION, priority 2015, dated 2024)

Legend:
Assay type in all cases: in vivo
[1] = system: barnyardgrass (Echinochloa crus-galli); experiment: Test G Post-Emergence Protocol; settings: Echinochloa crus-galli, post-emergence, 312 h, read-out: Barnyardgrass damage rating; for pest or weed control at 15.625 g/ha: 15.625 g ai/ha, evaluated after 13 days (100=total damage to plant; 0=no damage to plant); for pest or weed control at 62.5 g/ha: 62.5 g ai/ha; for pest or weed control at 62.5 g/ha / pest or weed control at 250 g/ha: evaluated after 13 days, 100=total damage to plant, 0=no damage to plant; for pest or weed control at 250 g/ha: 250 g ai/ha
Outline: (§1)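 Damage was rated 13 days after treatment from 0 (none) to 100 (plant killed). Compound was applied as a spray at 15.625, 62.5 or 250 g/ha in 50:50 acetone/water containing 0.5% Tween 20, onto 8-day-old potted plants kept in a glasshouse (24/16 °C, 14 h light, 65% humidity).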

[2] = system: redroot pigweed (Amaranthus retroflexus); experiment: Test G Post-Emergence Protocol; settings: Amaranthus retroflexus, post-emergence, 312 h, read-out: Pigweed, Redroot damage rating; for pest or weed control at 15.625 g/ha: 15.625 g ai/ha, evaluated after 13 days (100=total damage to plant; 0=no damage to plant); for pest or weed control at 62.5 g/ha: 62.5 g ai/ha; for pest or weed control at 62.5 g/ha / pest or weed control at 250 g/ha: evaluated after 13 days, 100=total damage to plant, 0=no damage to plant; for pest or weed control at 250 g/ha: 250 g ai/ha
Outline: as §1

[3] = system: velvetleaf (Abutilon theophrasti); experiment: Test G Post-Emergence Protocol; settings: Abutilon theophrasti, post-emergence, 312 h, read-out: Velvetleaf damage rating; for pest or weed control at 15.625 g/ha: 15.625 g ai/ha, evaluated after 13 days (100=total damage to plant; 0=no damage to plant); for pest or weed control at 62.5 g/ha: 62.5 g ai/ha; for pest or weed control at 62.5 g/ha / pest or weed control at 250 g/ha: evaluated after 13 days, 100=total damage to plant, 0=no damage to plant; for pest or weed control at 250 g/ha: 250 g ai/ha
Outline: as §1

[4] = system: giant foxtail (Setaria faberi); experiment: Test G Post-Emergence Protocol; settings: Setaria faberi, post-emergence, 312 h, read-out: Foxtail, Giant damage rating; for pest or weed control at 15.625 g/ha: 15.625 g ai/ha, evaluated after 13 days (100=total damage to plant; 0=no damage to plant); for pest or weed control at 62.5 g/ha: 62.5 g ai/ha
Outline: as §1

[5] = system: ivy-leaved morning glory (Ipomoea hederacea); experiment: Test G Post-Emergence Protocol; settings: Ipomoea, post-emergence, 312 h, read-out: Morningglory, Ivy-leaved damage rating; for pest or weed control at 15.625 g/ha: 15.625 g ai/ha, evaluated after 13 days (100=total damage to plant; 0=no damage to plant); for pest or weed control at 62.5 g/ha: 62.5 g ai/ha; for pest or weed control at 62.5 g/ha / pest or weed control at 250 g/ha: evaluated after 13 days, 100=total damage to plant, 0=no damage to plant; for pest or weed control at 250 g/ha: 250 g ai/ha
Outline: as §1

[6] = system: corn (Zea mays); experiment: Test G Post-Emergence Protocol; settings: Zea mays, post-emergence, 312 h, read-out: Corn damage rating; for plant injury at 15.625 g/ha: 15.625 g ai/ha, evaluated after 13 days (100=total damage to plant; 0=no damage to plant); for plant injury at 62.5 g/ha: 62.5 g ai/ha; for plant injury at 62.5 g/ha / plant injury at 250 g/ha: evaluated after 13 days, 100=total damage to plant, 0=no damage to plant; for plant injury at 250 g/ha: 250 g ai/ha
Outline: as §1

[7] = system: barnyardgrass (Echinochloa crus-galli); experiment: Test G Pre-Emergence Protocol; settings: Echinochloa crus-galli, pre-emergence, 312 h, evaluated after 13 days; for pest or weed control at 15.625 g/ha: 15.625 g ai/ha; for pest or weed control at 15.625 g/ha / pest or weed control at 250 g/ha: read-out: Barnyardgrass damage rating (100=total damage to plant; 0=no damage to plant); for pest or weed control at 62.5 g/ha: 62.5 g ai/ha, 100=total damage to plant, 0=no damage to plant, read-out: Barnyardgrass damage rating; for pest or weed control at 250 g/ha: 250 g ai/ha
Outline: (§2)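 One day after sowing, pots are treated with a spray of test compound formulated in acetone/water 50:50 plus 0.5% Tween 20, giving 15.625, 62.5 or 250 g/ha. Evaluation on a 0–100 damage scale follows 13 days of glasshouse growth.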

[8] = system: redroot pigweed (Amaranthus retroflexus); experiment: Test G Pre-Emergence Protocol; settings: Amaranthus retroflexus, pre-emergence, 312 h, evaluated after 13 days; for pest or weed control at 15.625 g/ha: 15.625 g ai/ha; for pest or weed control at 15.625 g/ha / pest or weed control at 250 g/ha: read-out: Pigweed, Redroot damage rating (100=total damage to plant; 0=no damage to plant); for pest or weed control at 62.5 g/ha: 62.5 g ai/ha, 100=total damage to plant, 0=no damage to plant, read-out: Pigweed, Redroot damage rating; for pest or weed control at 250 g/ha: 250 g ai/ha
Outline: as §2

[9] = system: velvetleaf (Abutilon theophrasti); experiment: Test G Pre-Emergence Protocol; settings: Abutilon theophrasti, pre-emergence, 312 h, evaluated after 13 days; for pest or weed control at 15.625 g/ha: 15.625 g ai/ha; for pest or weed control at 15.625 g/ha / pest or weed control at 250 g/ha: read-out: Velvetleaf damage rating (100=total damage to plant; 0=no damage to plant); for pest or weed control at 62.5 g/ha: 62.5 g ai/ha, 100=total damage to plant, 0=no damage to plant, read-out: Velvetleaf damage rating; for pest or weed control at 250 g/ha: 250 g ai/ha
Outline: as §2

[10] = system: giant foxtail (Setaria faberi); experiment: Test G Pre-Emergence Protocol; settings: Setaria faberi, pre-emergence, 312 h, evaluated after 13 days; for pest or weed control at 15.625 g/ha: 15.625 g ai/ha; for pest or weed control at 15.625 g/ha / pest or weed control at 250 g/ha: read-out: Foxtail, Giant damage rating (100=total damage to plant; 0=no damage to plant); for pest or weed control at 62.5 g/ha: 62.5 g ai/ha, 100=total damage to plant, 0=no damage to plant, read-out: Foxtail, Giant damage rating; for pest or weed control at 250 g/ha: 250 g ai/ha
Outline: as §2

[11] = system: ivy-leaved morning glory (Ipomoea hederacea); experiment: Test G Pre-Emergence Protocol; settings: Ipomoea, pre-emergence, 312 h, evaluated after 13 days; for pest or weed control at 15.625 g/ha: 15.625 g ai/ha; for pest or weed control at 15.625 g/ha / pest or weed control at 250 g/ha: read-out: Morningglory, Ivy-leaved damage rating (100=total damage to plant; 0=no damage to plant); for pest or weed control at 62.5 g/ha: 62.5 g ai/ha, 100=total damage to plant, 0=no damage to plant, read-out: Morningglory, Ivy-leaved damage rating; for pest or weed control at 250 g/ha: 250 g ai/ha
Outline: as §2

[12] = system: corn (Zea mays); experiment: Test G Pre-Emergence Protocol; settings: Zea mays, pre-emergence, 312 h, evaluated after 13 days; for plant injury at 15.625 g/ha: 15.625 g ai/ha; for plant injury at 15.625 g/ha / plant injury at 250 g/ha: read-out: Corn damage rating (100=total damage to plant; 0=no damage to plant); for plant injury at 62.5 g/ha: 62.5 g ai/ha, 100=total damage to plant, 0=no damage to plant, read-out: Corn damage rating; for plant injury at 250 g/ha: 250 g ai/ha
Outline: as §2

[13] = evaluated after 13 days, 100=total damage to plant, 0=no damage to plant

COc1c(C)cc(C2CN(C)C(=O)C2C(=O)Nc2cccc(F)c2F)cc1C (centres unmarked) [Compound 1707]
pest or weed control at 15.625 g/ha [1]: 70%
pest or weed control at 62.5 g/ha [1]: 70%
pest or weed control at 250 g/ha [1]: 80%
pest or weed control at 15.625 g/ha [2]: 0%
pest or weed control at 62.5 g/ha [2]: 0%
pest or weed control at 250 g/ha [2]: 0%
pest or weed control at 15.625 g/ha [3]: 0%
pest or weed control at 62.5 g/ha [3]: 20%
pest or weed control at 250 g/ha [3]: 30%
pest or weed control at 15.625 g/ha [4]: 80%
pest or weed control at 62.5 g/ha [4, 13]: 80%
pest or weed control at 15.625 g/ha [5]: 40%
pest or weed control at 62.5 g/ha [5]: 40%
pest or weed control at 250 g/ha [5]: 70%
plant injury at 15.625 g/ha [6]: 60%
plant injury at 62.5 g/ha [6]: 70%
plant injury at 250 g/ha [6]: 80%
pest or weed control at 15.625 g/ha [7]: 70%
pest or weed control at 62.5 g/ha [7]: 80%
pest or weed control at 250 g/ha [7]: 90%
pest or weed control at 15.625 g/ha [8]: 20%
pest or weed control at 62.5 g/ha [8]: 20%
pest or weed control at 250 g/ha [8]: 40%
pest or weed control at 15.625 g/ha [9]: 10%
pest or weed control at 62.5 g/ha [9]: 10%
pest or weed control at 250 g/ha [9]: 60%
pest or weed control at 15.625 g/ha [10]: 80%
pest or weed control at 62.5 g/ha [10]: 90%
pest or weed control at 250 g/ha [10]: 90%
pest or weed control at 15.625 g/ha [11]: 0%
pest or weed control at 62.5 g/ha [11]: 10%
pest or weed control at 250 g/ha [11]: 30%
plant injury at 15.625 g/ha [12]: 20%
plant injury at 62.5 g/ha [12]: 80%
plant injury at 250 g/ha [12]: 80%

COc1c(F)cc(C2CN(C)C(=O)C2C(=O)Nc2cccc(F)c2F)cc1Cl (centres unmarked) [Compound 1709]
pest or weed control at 15.625 g/ha [1]: 30%
pest or weed control at 62.5 g/ha [1]: 70%
pest or weed control at 250 g/ha [1]: 80%
pest or weed control at 15.625 g/ha [2]: 20%
pest or weed control at 62.5 g/ha [2]: 10%
pest or weed control at 250 g/ha [2]: 30%
pest or weed control at 15.625 g/ha [3]: 20%
pest or weed control at 62.5 g/ha [3]: 10%
pest or weed control at 250 g/ha [3]: 50%
pest or weed control at 15.625 g/ha [4]: 70%
pest or weed control at 62.5 g/ha [4, 13]: 80%
pest or weed control at 250 g/ha ([4]; 250 g ai/ha, evaluated after 13 days, 100=total damage to plant, 0=no damage to plant): 80%
pest or weed control at 15.625 g/ha [5]: 10%
pest or weed control at 62.5 g/ha [5]: 50%
pest or weed control at 250 g/ha [5]: 70%
plant injury at 15.625 g/ha [6]: 30%
plant injury at 62.5 g/ha [6]: 60%
plant injury at 250 g/ha [6]: 80%
pest or weed control at 15.625 g/ha [7]: 60%
pest or weed control at 62.5 g/ha [7]: 70%
pest or weed control at 250 g/ha [7]: 80%
pest or weed control at 15.625 g/ha [8]: 0%
pest or weed control at 62.5 g/ha [8]: 20%
pest or weed control at 250 g/ha [8]: 50%
pest or weed control at 15.625 g/ha [9]: 0%
pest or weed control at 62.5 g/ha [9]: 20%
pest or weed control at 250 g/ha [9]: 30%
pest or weed control at 15.625 g/ha [10]: 70%
pest or weed control at 62.5 g/ha [10]: 80%
pest or weed control at 250 g/ha [10]: 90%
pest or weed control at 15.625 g/ha [11]: 0%
pest or weed control at 62.5 g/ha [11]: 10%
pest or weed control at 250 g/ha [11]: 20%
plant injury at 15.625 g/ha [12]: 0%
plant injury at 62.5 g/ha [12]: 70%
plant injury at 250 g/ha [12]: 90%
